Measured values: patent US9737602B2, “Carotenoid particles and uses thereof” (IP SCIENCE LIMITED, priority 2011, dated 2017)

Assays:
Chlamydia pneumoniae = assay: Clinical trial in CHD patients: serum anti-Chlamydia IgG (IgG-ELISA); assay type: in vivo, human; details: for Chlamydia pneumoniae load in IgG-ELISA, ELISA reading: below 0.300-0.400 is considered negative
Description: (§1) 20 Coronary Heart Disease (CHD) patients who were positive for anti-Chlamydia IgG and hypercholesterolaemia were identified. These patients were randomised in 4 groups of 5 patients, and each of them received daily either in: • 1st group—7 mg of lycopene supplement (in 70 mg of tomato oleoresin), or • 2nd group—[…] of WP, or • 3rd group—mechanical mixture of 7 mg of lycopene (in 70 mg of tomato oleoresin), and 70 mg of WP, or • 4th group—WP-Lycosome comprising of 7 mg of lycopene (in 70 mg of tomato oleoresin) and 70 mg of WP.
(§2) Serum anti-Chlamydia IgG and total serum cholesterol were measured after 4 weeks.

clinical = assay type: in vivo, human
Description: as §1

[1] = Clinical trial in CHD patients: total serum cholesterol; assay type: in vivo, human
Description: as §1, §2

[2] = Pharmacokinetic study on volunteers: unmodified trans-resveratrol in blood; assay type: in vivo; details: human, serum, po, 100 mg, 100 mg trans-Resveratol oral, individual volunteers ID 1, 2, read-out: AUC for 24 hours
Description: The group of 5 volunteers comprised of 2 female and 3 male clinically healthy Caucasian persons, age between 23 and 35 years. They were asked, before commencing this experiment, to go for 3-4 days “wash-out”, when consumption of any grape, wine, peanut, chocolate and other products which might contain them.
Blood samples were taken from their median cubital or cephalic veins at the baseline point. […]
After taking blood its serum was separated, aliquoted and stored at −80° C. for further testing.

[3] = difference after 4 weeks of administration

Row | SMILES | number of sero-positive patients (Chlamydia pneumoniae; 0 w) | Chlamydia pneumoniae load in IgG-ELISA, ELISA reading (Chlamydia pneumoniae; 0 w, CHD patients) | number of sero-positive patients (Chlamydia pneumoniae; 1 w) | number of sero-positive patients (Chlamydia pneumoniae; 2 w) | number of sero-positive patients (Chlamydia pneumoniae; 3 w) | time by which all patients were sero-negative / anti-Chlamydia IgG cleared from serum (Chlamydia pneumoniae; 4-week trial) | number of sero-positive patients (Chlamydia pneumoniae; 4 w) | Chlamydia pneumoniae load in IgG-ELISA, ELISA reading (Chlamydia pneumoniae; 4 w of daily administration) | effect on level of Chlamydia infection (specific IgG), in words (Chlamydia pneumoniae; CHD patients, daily for 4 weeks) | Total serum Lycopene, Δ (clinical; [3]) | concentration at 0 w (clinical; human, in vivo) [ng/mL] | concentration at 4 w (clinical; human, in vivo) [ng/mL] | Total serum Cholesterol ([1]; 0 w) [mmol/L] | Total serum Cholesterol ([1]; 4 w) [mmol/L] | reduction of serum cholesterol ([1]; after 4 weeks) [mmol/L] | Total serum Cholesterol, Δ [1, 3] [mmol/L] | AUC [2] [ng·h/mL]
1 | CC(C)=CCC/C(C)=C/C=C/C(C)=C/C=C/C(C)=C/C=C/C=C(C)/C=C/C=C(C)/C=C/C=C(\C)CCC=C(C)C [GA Lycopene, lycopene] | 10 | 0.997 ± 0.098 | (10) | (4) | (2) | in the last week of the trial | 0 | 0.288 ± 0.043 | some ability to reduce Chlamydia infection | +116 ng/ml | 179 ± 21 | 295 ± 23 | 5.4 ± 0.23 | 4.7 ± 0.21 | 0.7 | -0.7 | –
2 | Oc1ccc(/C=C/c2cc(O)cc(O)c2)cc1 [Resveratrol, 3,5,4′-trihydroxy-trans-stilbene] | – | – | – | – | – | – | – | – | – | – | – | – | – | – | – | – | 432
